Measured values published in ChEMBL document CHEMBL4145615, “Indolyl Azaspiroketal Mannich Bases Are Potent Antimycobacterial Agents with Selective Membrane Permeabilizing Effects and in Vivo Activity” (J Med Chem, 2018).
Values after ≈ are worked out from the molar mass of the structure shown.

Each molecule was assayed on Mycobacterium tuberculosis variant bovis BCG (assay: Antimycobacterial activity against Mycobacterium bovis BCG ATCC 35734 after 5 days by broth dilution method). Conditions: ATCC 35734, 120 h.
Format: functional

Structure (SMILES) | MIC50 | MIC90
CCCCCCCCn1ccc2ccc(OCCCN3CCC4(CC3)OCCCO4)cc21 | 5.6 µM (≈ 2.48 µg/mL) | 28 µM (≈ 12.4 µg/mL)
CCCCCCCCn1cc(CN2CCOC3(CCCOC3)C2)c2ccc(OC)cc21 (stereo not given) | 1.8 µM (≈ 0.772 µg/mL) | 6.3 µM (≈ 2.7 µg/mL)
CCCCCCCCn1cc(CN2CCOC3(CCCO3)C2)c2ccc(OC)cc21 (stereo not given) | 15 µM (≈ 6.22 µg/mL) | 46 µM (≈ 19.1 µg/mL)
COc1ccc2c(CN3CCC4(CC3)OCCCO4)cn(CCCOc3ccc(C)cc3)c2c1 | 1.3 µM (≈ 0.604 µg/mL) | 2.6 µM (≈ 1.21 µg/mL)
CCCCCCCCn1cc(CN2CCCC3(CC2)OCCS3)c2ccc(OC)cc21 (stereo not given) | 0.7 µM (≈ 0.311 µg/mL) | 1.2 µM (≈ 0.534 µg/mL)
CCCCCCCCn1cc(CN2CCC3(CC2)OCCCO3)c2cccc([N+](=O)[O-])c21 | 1.3 µM (≈ 0.577 µg/mL) | 3.1 µM (≈ 1.38 µg/mL)
COc1ccc2c(CN3CCCCC3)cn(CCCOc3ccc(C)cc3)c2c1 | 19 µM (≈ 7.46 µg/mL) | 41 µM (≈ 16.1 µg/mL)
CCCCCCCCn1cc(CN2CCC3(CC2)OCCCO3)c2c([N+](=O)[O-])cccc21 | 10 µM (≈ 4.44 µg/mL) | 25 µM (≈ 11.1 µg/mL)
CCCCCCCCn1cc(CN2CCC3(CC2)OC[C@@H](C)O3)c2ccc(OC)cc21 | 0.6 µM (≈ 0.257 µg/mL) | 0.8 µM (≈ 0.343 µg/mL)
CCCCCCCCn1ccc2cc(OCCN3CCCCCC3)ccc21 | 2 µM (≈ 0.741 µg/mL) | 6 µM (≈ 2.22 µg/mL)
CCCCCCCCn1cc(CN2CCCCC2)c2ccc(OC)cc21 | 7 µM (≈ 2.5 µg/mL) | 13 µM (≈ 4.64 µg/mL)
CCCCCCCCn1ccc2ccc(OCCCN3CCCC3)cc21 | 20 µM (≈ 7.13 µg/mL) | 42 µM (≈ 15 µg/mL)
COc1ccc2c(CN3CCC4(CC3)OCCO4)cn(CCCOc3ccc(C)cc3)c2c1 | 4.8 µM (≈ 2.16 µg/mL) | 11 µM (≈ 4.96 µg/mL)
COc1ccc2c(CN3CCC4(CC3)OCCCO4)cn(CCCCc3ccccc3)c2c1 | 1.6 µM (≈ 0.718 µg/mL) | 3.1 µM (≈ 1.39 µg/mL)
CCCCCCCCn1ccc2cccc(OCCCN3CCCCC3)c21 | 5 µM (≈ 1.85 µg/mL) | 13 µM (≈ 4.82 µg/mL)
CCCCCCCCn1cc(CN2CCCC3(CC2)OCCCS3)c2ccc(OC)cc21 (stereo not given) | 0.5 µM (≈ 0.229 µg/mL) | 1 µM (≈ 0.459 µg/mL)
CCCCCCCCn1ccc2ccc(OCCCN3CCCCC3)cc21 | 13 µM (≈ 4.82 µg/mL) | 25 µM (≈ 9.26 µg/mL)
CCCCCCCCn1cc(CN2CCC3(CCO3)CC2)c2ccc(OC)cc21 | 2 µM (≈ 0.797 µg/mL) | 4 µM (≈ 1.59 µg/mL)
CCCCCCCCn1cc(CN2CCC3(CC2)OCCO3)c2ccc(C#N)cc21 | 2.5 µM (≈ 1.02 µg/mL) | 5 µM (≈ 2.05 µg/mL)
COc1ccc2c(CN3CCCCC3)cn(CCCOc3ccc(C)c(C)c3)c2c1 | 18 µM (≈ 7.32 µg/mL) | 25 µM (≈ 10.2 µg/mL)
COc1ccc2c(CN3CCCCC3)cn(C/C=C/c3ccccc3)c2c1 | 31 µM (≈ 11.2 µg/mL) | 49 µM (≈ 17.7 µg/mL)
COc1ccc2c(CN3CCCCC3)cn(CCCCOc3ccccc3)c2c1 | 16 µM (≈ 6.28 µg/mL) | 41 µM (≈ 16.1 µg/mL)

Structure (SMILES) | MIC50 | MIC90
CCCCCCCCn1cc(CN2CCC3(CC2)OCCO3)c2ccc(OCc3ccccc3)cc21 | 4 µM (≈ 1.96 µg/mL) | 5.5 µM (≈ 2.7 µg/mL)
CCCCCCCCn1cc(CN2CCC3(CC2)OC[C@H](C)O3)c2ccc(OC)cc21 | 0.5 µM (≈ 0.214 µg/mL) | 0.9 µM (≈ 0.386 µg/mL)
CCCCCCCCn1cc(CNCC2CC3CCC2C3)c2ccc(OC)cc21 (stereo not given) | 1.1 µM (≈ 0.436 µg/mL) | 1.9 µM (≈ 0.754 µg/mL)
COc1ccc2c(CN3CCC4(CC3)OCCCO4)cn(CCCCOc3ccccc3)c2c1 | 11 µM (≈ 5.11 µg/mL) | 25 µM (≈ 11.6 µg/mL)
COc1ccc2c(CN3CCC4(CC3)OCCCO4)cn(CCCOc3ccc(C)c(C)c3)c2c1 | 1.7 µM (≈ 0.814 µg/mL) | 2.7 µM (≈ 1.29 µg/mL)
CCCCCCCCn1cc(CNC2Cc3ccccc3C2)c2ccc(OC)cc21 | 4 µM (≈ 1.62 µg/mL) | 
COc1ccc2c(CN3CCC4(CC3)OCCCO4)cn(CCCc3ccccc3)c2c1 | 2.6 µM (≈ 1.13 µg/mL) | 9.8 µM (≈ 4.26 µg/mL)
CCCCCCCCn1cc(CN2CCCCC2)c2ccc([N+](=O)[O-])cc21 | 4 µM (≈ 1.49 µg/mL) | 5 µM (≈ 1.86 µg/mL)
CCCCCCCCn1cc(CN2CC3COCC(C2)O3)c2ccc(OC)cc21 | 17 µM (≈ 6.81 µg/mL) | 30 µM (≈ 12 µg/mL)
CCCCCCCCn1cc(CN2CCC(=O)CC2)c2ccc(OC)cc21 | 17 µM (≈ 6.3 µg/mL) | 24 µM (≈ 8.89 µg/mL)
CCCCCCCCn1ccc2cccc(OCCCN3CCCC3)c21 | 10 µM (≈ 3.57 µg/mL) | 22 µM (≈ 7.84 µg/mL)
COc1ccc2c(CN3CCC4(CC3)OCCO4)cn(CCCOc3ccc(F)cc3)c2c1 | 5 µM (≈ 2.27 µg/mL) | 11 µM (≈ 5 µg/mL)
CCCCCCCCn1cc(CN2CCC3(C=Cc4ccccc43)CC2)c2ccc(OC)cc21 | 1 µM (≈ 0.457 µg/mL) | 2 µM (≈ 0.913 µg/mL)
CCCCCCCCn1cc(CNC2CCC3(CC2)OCCO3)c2ccc(OC)cc21 | 3.6 µM (≈ 1.54 µg/mL) | 6.3 µM (≈ 2.7 µg/mL)
CCCCCCCCn1cc(CN2CCC3(CC2)OCCCO3)c2ccc(OCc3ccccc3)cc21 | 2.2 µM (≈ 1.11 µg/mL) | 3.1 µM (≈ 1.56 µg/mL)
COc1ccc2c(CN3CCCCC3)cn(CCCOCc3ccccc3)c2c1 | 46 µM (≈ 18.1 µg/mL) | > 50 µM
COc1ccc(CCCn2cc(CN3CCCCC3)c3ccc(OC)cc32)cc1 | 18 µM (≈ 7.07 µg/mL) | 39 µM (≈ 15.3 µg/mL)
CCCCCCCCn1cc(CN2CCCCC2)c2ccc(C#N)cc21 | 2 µM (≈ 0.703 µg/mL) | 6 µM (≈ 2.11 µg/mL)
CCCCCCCCn1cc(CN2CCC3(CC2)CNC(=O)O3)c2ccc(OC)cc21 | 22 µM (≈ 9.41 µg/mL) | 43 µM (≈ 18.4 µg/mL)
CCCCCCCCn1ccc2ccc(OCCCN3CCC4(CC3)OC[C@H](C)O4)cc21 | 11 µM (≈ 4.87 µg/mL) | 25 µM (≈ 11.1 µg/mL)
COc1ccc2c(CN3CCC4(CC3)OCCCO4)cn(CCCOc3ccc(F)cc3)c2c1 | 1.5 µM (≈ 0.703 µg/mL) | 2.6 µM (≈ 1.22 µg/mL)
